Measured values reported in patent publication US20210198647A1, “Enhancers of Neurolysin Activity” (Texas Tech University System, priority 2018, published 2021).
Where “and” joins values, the source holds several entries; their conditions need not be identical. Equal values may be shown once. Read-outs that look alike come from different tables or passages of the source.

Columns and labels:
[1] = biological target: T1, angiotensin converting enzyme (ACE) (Homo sapiens, UniProt P12821); experiment: Peptidase selectivity: quenched fluorescent substrate hydrolysis by ACE; assay type: biochemical; conditions: concentration-response up to 300 μM
T1 construct: purchased R & D systems 929-ZN

[2] = biological target: T2, angiotensin converting enzyme 2 (ACE2) (Homo sapiens, UniProt Q9BYF1); experiment: Peptidase selectivity: quenched fluorescent substrate hydrolysis by ACE2; assay type: biochemical; conditions: concentration-response up to 300 μM
T2 construct: purchased R & D systems 933-ZN

Neurolysin (Nln) = biological target: T3, Neurolysin (Nln) (Rattus norvegicus, UniProt P42676); experiment: Nln activation in isolated enzyme assay (A50, Amax); assay type: biochemical; conditions: 95% CI in parentheses; for Amax (maximum % activation achieved): 100% = normal enzyme turnover
T3 construct: polyhistidine (N); made in house; host or cells: Escherichia coli (pBAD/His vector), if the rat enzyme of b61 was used

[3] = Plasma and brain protein binding, rapid equilibrium dialysis (RED); assay type: in vitro ADME, mouse
Experimental: Plasma and Brain Protein Binding: The rapid equilibrium dialysis (RED) plate and single-use inserts with a membrane MWCO of 8 kDa and sealing tapes for 96-well plates were purchased from (Pierce Biotechnology, Thermo Fisher Scientific, Waltham, Mass.). Test compounds were dissolved in dimethyl sulfoxide and then diluted to 10 μg/mL with water for binding studies. The stock solutions (10 μg/mL) were added to mouse brain homogenates or plasma. The final concentration of the compounds for the equilibrium dialysis experiment was 500 ng/mL. The RED device was assembled according to the manufacturer's instructions. A 200 μL aliquot of plasma or brain homogenate spiked with 500 ng/mL of selected compound was added to the sample chamber of insert (donor) and 400 μL of DPBS was added to the buffer chamber of the dialysis membrane (receiver). Then, the base plate was covered with a sealing tape and was incubated at 37° C. on an orbital shaker at 250 rpm for 4 hours to achieve equilibrium. Compounds were evaluated in triplicate for each experiment. At the end of incubation, equal volumes from both donor and receiver chambers were taken and placed in separate microcentrifuge for content analysis using LC-MS/MS.

[4] = test system: co-culture of primary mouse astrocytes and immortalized mouse endothelial cells (bEnd3); experiment: In vitro BBB permeability, apical to basolateral transport; assay type: in vitro ADME; conditions: 10 μg/mL, 37° C.
Experimental: The permeability coefficient (Pe) was calculated from the cleared volume of each compound versus time. Values represent the mean±SD of three measurements.
Mouse primary astrocytes were isolated from the cerebral cortices of one day old pups (CD-1 mice, Charles Rivers Laboratory) following a literature method.^36 After extracting the brain, cortices were separated, minced and placed in Hank's balanced salt solution (HBSS) without calcium and magnesium, supplemented with gentamycin (10 μg/m). […] The cell suspensions were seeded into a T75 flask and the medium was changed every 3 days for 10-14 days or until reaching confluency.
For bEnd3 and astrocyte co-culture, the Transwell filters ([…] pore size, 12-well; Corning, Lowell, Mass.) were used. First, the Transwell filter was inverted and astrocytes at a density of 150,000 cells/filter were seeded onto the abluminal side of the filter and allowed to adhere for 4 hours. Then the Transwell filter was inverted back and the cells were grown for 2 days in astrocyte medium. At the end of 48 hours, bEnd3 cells at a density of 50,000 cells/filter were seeded onto the upper/luminal side of the filter and the co-culture of astrocytes and bEnd3 cells were grown for an additional 8 days. The medium for both compartments were changed every other day according to literature proceedures.^37
The apparent permeability coefficient (Pe, in cm/min) was calculated according to the cleared volume of each time point, as previously described.^38,39
Permeability measurement for each compound was run for 120 minutes. The media was removed and transwells were rinsed and incubated with HBSS buffer at 37° C. for 30 minutes. […] Concentration of compounds was determined by LC-MS/MS. Since the blank Transwell insert itself (without cells) provides resistance to the passage of buffer and compound from the donor to receiver chamber, the permeability of each compound was also measured in a blank insert and the final permeability coefficient results were calculated by considering the permeability of each compound in a blank insert.

in vitro = conditions: mouse, mouse plasma
[5] = In vitro metabolic stability in mouse plasma and brain homogenate; conditions: 10% mouse brain homogenate; 500 ng/mL; 37° C.
[6] = biological target: thimet oligopeptidase (TOP) (Homo sapiens, UniProt P52888); experiment: Peptidase selectivity: quenched fluorescent substrate hydrolysis by TOP; conditions: concentration-response up to 300 μM
Sequence of thimet oligopeptidase (TOP) (P52888 whole entry): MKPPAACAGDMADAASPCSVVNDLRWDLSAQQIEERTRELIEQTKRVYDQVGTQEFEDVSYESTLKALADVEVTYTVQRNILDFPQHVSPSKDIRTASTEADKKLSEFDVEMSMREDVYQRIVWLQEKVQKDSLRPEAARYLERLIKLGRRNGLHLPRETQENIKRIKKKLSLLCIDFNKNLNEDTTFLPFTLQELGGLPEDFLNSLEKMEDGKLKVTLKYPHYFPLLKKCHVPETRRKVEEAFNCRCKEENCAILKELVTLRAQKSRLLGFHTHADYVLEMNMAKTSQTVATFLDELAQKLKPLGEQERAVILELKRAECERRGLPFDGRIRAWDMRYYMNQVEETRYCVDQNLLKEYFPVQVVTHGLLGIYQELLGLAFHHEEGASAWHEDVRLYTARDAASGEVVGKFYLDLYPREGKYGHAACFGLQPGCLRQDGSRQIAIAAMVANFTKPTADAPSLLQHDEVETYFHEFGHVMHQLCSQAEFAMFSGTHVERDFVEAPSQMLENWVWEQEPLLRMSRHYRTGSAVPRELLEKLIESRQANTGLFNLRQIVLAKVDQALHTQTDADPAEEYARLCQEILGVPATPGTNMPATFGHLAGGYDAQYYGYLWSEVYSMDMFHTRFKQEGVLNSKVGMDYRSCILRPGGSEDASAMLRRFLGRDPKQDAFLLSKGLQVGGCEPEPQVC
Experimental: Activity of recombinant human TOP was assessed in the same way as for neurolysin, except that the assay was carried out in the presence of 0.1 mM dithiothreitol (37).

T3 sequence (P42676 38-704): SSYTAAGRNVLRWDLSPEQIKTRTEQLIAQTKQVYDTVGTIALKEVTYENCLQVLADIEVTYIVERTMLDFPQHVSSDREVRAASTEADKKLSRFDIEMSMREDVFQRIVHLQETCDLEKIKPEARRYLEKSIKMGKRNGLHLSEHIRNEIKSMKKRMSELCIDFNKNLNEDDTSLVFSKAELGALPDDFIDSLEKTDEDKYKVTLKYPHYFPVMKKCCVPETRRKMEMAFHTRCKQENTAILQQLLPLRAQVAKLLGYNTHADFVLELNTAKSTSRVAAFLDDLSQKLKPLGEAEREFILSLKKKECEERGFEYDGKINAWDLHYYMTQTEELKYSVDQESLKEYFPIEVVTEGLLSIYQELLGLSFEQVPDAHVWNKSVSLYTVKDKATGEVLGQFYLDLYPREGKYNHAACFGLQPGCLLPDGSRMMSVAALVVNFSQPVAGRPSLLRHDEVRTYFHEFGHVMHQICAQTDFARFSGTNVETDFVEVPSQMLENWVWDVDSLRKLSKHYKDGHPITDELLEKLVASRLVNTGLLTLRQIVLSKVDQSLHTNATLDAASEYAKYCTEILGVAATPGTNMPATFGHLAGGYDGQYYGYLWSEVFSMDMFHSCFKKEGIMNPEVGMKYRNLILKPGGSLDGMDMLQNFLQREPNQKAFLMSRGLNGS
T1 sequence (P12821 30-1306): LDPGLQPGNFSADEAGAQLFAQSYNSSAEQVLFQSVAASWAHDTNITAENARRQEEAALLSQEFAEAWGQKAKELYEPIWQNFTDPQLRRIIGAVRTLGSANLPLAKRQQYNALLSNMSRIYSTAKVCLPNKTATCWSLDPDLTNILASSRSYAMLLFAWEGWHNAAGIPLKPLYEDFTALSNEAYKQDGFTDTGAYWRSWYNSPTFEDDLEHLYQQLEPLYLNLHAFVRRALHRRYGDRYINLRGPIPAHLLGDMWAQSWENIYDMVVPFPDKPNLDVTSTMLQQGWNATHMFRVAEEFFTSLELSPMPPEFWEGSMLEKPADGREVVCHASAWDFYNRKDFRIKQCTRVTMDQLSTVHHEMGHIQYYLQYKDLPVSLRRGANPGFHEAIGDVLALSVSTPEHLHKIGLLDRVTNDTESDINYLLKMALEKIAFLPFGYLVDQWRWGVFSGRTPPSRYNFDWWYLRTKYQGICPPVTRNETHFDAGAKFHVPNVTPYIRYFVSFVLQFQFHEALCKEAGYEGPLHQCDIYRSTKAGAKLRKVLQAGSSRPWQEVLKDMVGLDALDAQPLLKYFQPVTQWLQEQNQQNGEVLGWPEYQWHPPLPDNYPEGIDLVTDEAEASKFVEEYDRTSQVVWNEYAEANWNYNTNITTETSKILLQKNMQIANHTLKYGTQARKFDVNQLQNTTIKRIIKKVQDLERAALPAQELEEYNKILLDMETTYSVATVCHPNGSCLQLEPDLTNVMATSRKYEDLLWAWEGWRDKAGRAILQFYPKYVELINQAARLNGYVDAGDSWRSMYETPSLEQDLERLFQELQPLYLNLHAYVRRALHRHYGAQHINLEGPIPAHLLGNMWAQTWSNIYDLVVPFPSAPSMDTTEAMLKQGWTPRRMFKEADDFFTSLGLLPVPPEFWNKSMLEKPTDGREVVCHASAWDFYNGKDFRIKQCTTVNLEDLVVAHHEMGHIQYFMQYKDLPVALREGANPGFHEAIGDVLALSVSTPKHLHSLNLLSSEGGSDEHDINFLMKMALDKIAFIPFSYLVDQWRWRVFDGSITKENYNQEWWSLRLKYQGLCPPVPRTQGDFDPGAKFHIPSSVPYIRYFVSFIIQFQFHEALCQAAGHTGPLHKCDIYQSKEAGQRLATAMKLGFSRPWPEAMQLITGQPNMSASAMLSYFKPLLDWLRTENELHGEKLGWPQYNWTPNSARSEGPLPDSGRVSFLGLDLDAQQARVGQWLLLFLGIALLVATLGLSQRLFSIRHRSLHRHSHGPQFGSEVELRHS
T2 sequence (Q9BYF1 18-805): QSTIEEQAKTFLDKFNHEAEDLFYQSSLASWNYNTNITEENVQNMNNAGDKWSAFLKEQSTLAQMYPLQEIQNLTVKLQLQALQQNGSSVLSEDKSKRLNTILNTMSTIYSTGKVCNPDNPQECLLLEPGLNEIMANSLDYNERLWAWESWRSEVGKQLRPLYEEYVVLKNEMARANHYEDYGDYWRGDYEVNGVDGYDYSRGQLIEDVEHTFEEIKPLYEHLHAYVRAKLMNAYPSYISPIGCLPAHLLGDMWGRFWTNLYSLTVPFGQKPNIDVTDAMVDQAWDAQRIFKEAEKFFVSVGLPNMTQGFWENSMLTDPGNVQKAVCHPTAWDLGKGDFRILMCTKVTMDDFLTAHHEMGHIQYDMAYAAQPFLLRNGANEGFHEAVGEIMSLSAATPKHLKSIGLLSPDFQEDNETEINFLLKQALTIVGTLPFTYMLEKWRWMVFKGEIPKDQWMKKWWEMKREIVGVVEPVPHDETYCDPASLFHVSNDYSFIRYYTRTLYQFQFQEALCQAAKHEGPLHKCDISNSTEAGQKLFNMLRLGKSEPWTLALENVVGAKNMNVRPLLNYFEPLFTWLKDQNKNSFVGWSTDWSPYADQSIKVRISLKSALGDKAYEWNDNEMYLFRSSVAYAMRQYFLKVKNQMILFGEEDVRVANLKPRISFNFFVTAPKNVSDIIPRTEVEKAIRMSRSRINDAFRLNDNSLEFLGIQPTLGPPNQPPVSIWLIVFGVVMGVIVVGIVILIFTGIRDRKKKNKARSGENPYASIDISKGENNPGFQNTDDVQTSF

| SMILES | effect on activity of ACE (in words) [1] | effect on activity of ACE2 (in words) [2] | Amax (maximum % activation achieved) (Neurolysin (Nln)) | EC50 (Neurolysin (Nln); A50 (concentration required to activate Nln by 50%)) [µM] | fu in Plasma ([3]; mouse plasma, 500 ng/mL) | permeability coefficient (Pe) [4] | half-life at 500 ng/mL (in vitro) [h] | t1/2 Mouse Brain [5] | effect on activity of TOP (in words) [6] | fraction unbound at 4 h, 500 ng/mL ([3]; mouse brain homogenate, read-out: fu in Brain) | fraction unbound at 4 h, 500 ng/mL ([3]; mouse plasma, read-out: fu in Plasma) |
| --- | --- | --- | --- | --- | --- | --- | --- | --- | --- | --- | --- |
| N[C@@H](Cc1c[nH]cn1)C(=O)NCCc1c[nH]c2ccccc12 [Compound 9d, (S)—N-(2-(1H-indol-3-yl)ethyl)-2-amino-3-(1H-imidazol-4-yl)propanamide] | show inhibition of ACE at high concentration | showed inhibition of ACE2 at high concentrations | 259 (240.7 to 281) % | 6.1 | 0.63 ± 0.076 | 1.07±0.12×10^−3 cm/min | > 16.7 | 1.1 h and 1.09 ± 0.07 h | only exhibited inhibition at concentrations approaching 300 μM | – | – |
| N[C@@H](Cc1c[nH]cn1)C(=O)NCc1cccc2ccccc12 [Compound 10c, (S)-2-amino-3-(1H-imidazol-4-yl)-N-(naphthalen-1-ylmethyl)propanamide] | no inhibition at the maximum concentration tested | no inhibition up to 300 μM | 264 (256.3 to 272.6) % | – | – | 1.09±0.09×10^−3 cm/min | – | 1.33 h and 1.34 ± 0.033 h | No appreciable inhibition | 0.052 ± 0.003 | 0.45 ± 0.013 |
